Measured values from patent US20260240879A1, “TOPICAL PALA THERAPY FOR CANCER” (priority 2023, published 2026).

Columns and labels:
[1] = tested on: MOC-1 squamous cell carcinoma cells; assay: Oral squamous cell carcinoma orthotopic xenograft (tongue); type: in vivo, C57Bl/6 mice; conditions: 2% (w/w) PALA (AP0536/29/02), tongue treated topically 5×/week
Protocol: FIG. 18: Tumor growth of oral squamous cell carcinoma orthotopic xenografts is retarded by topical PALA treatment. C57Bl/6 mice (males and females; n=6/group) were injected with MOC-1 squamous cell carcinoma cells in the tongue. Once palpable tumors formed, mouse tongues were treated topically 5×/week with vehicle (AP0536/29/02) or 2% (w/w) PALA (AP0536/29/02). Tumor volume was measured by caliper every 2-3 days. Data are graphed as mean±SEM. Significant differences were determined by Mixed-effects Model (REML) with Sidak's multiple comparison test. *p<0.05, ****p<0.0001.

UVB-induced skin tumors = assay: Immunostaining of excised skin tumors (cell cycle markers, antimicrobial peptides, immune cells); type: in vivo, SKH1-Elite mice
[2] = molecular target: aspartate transcarbamylase (Escherichia coli, UniProt P0A786); conditions: transition-state analog inhibitor; cited from earlier work
[3] = Toxicity markers in UVB-tumor-bearing mice under topical treatment (weight, SAA, colon length, fecal LCN2)
Protocol: Serum amyloid A levels were measured in plasma samples using the Mouse SAA ELISA kit (E-90SAA, Immunology Consultants Laboratory, Inc.) according to manufacturer's instructions. Lipocalin-2 (LCN2) was quantified from pre-weighed stool samples homogenized in 0.5 mL PBS using the Mouse Lipocalin-2/NGAL DuoSet ELISA (DY1857) and DuoSet Ancillary Reagent Kit 2 (DY008, R&D Systems).

B16 melanoma = B16 melanoma orthotopic xenograft model; type: in vivo,  female mice
Protocol: FIG. 17: Topical PALA treatment retards melanoma growth and sensitizes melanoma to anti-checkpoint inhibitor therapy in a B16 melanoma orthotopic xenograft model. C57BU/6 female mice (n=4-5/group) were injected subcutaneously bilaterally with B16 melanoma cells (10^5 cells/flank; 8-10 injections total). Tumor volume was measured by caliper every 2-3 days by personnel blinded to treatment group. Data from palpable tumors are graphed as mean±SEM. […] On day 12 post-injection, mice were treated topically with either vehicle (AP0536/29/02) or 1% (w/w) PALA (AP0536/29/02) daily for 12 days. […] On day 7 post-injection, mice were treated topically with either vehicle (AP0536/29/02) or 2% (w/w) PALA (AP0536/29/02) daily for 5 days. Tumors were harvested on day 14 post-injection and tumor lysates analyzed by immunoblot for PD-L1 protein levels and quantified by image densitometry using ImageJ relative to tubulin levels (loading control). Mean±SEM graphed. C. […] On day 7 post-injection, mice were treated topically with either vehicle (AP0536/29/02) or 2% (w/w) PALA (AP0536/29/02) daily for 5 days. Mice were also treated with either isotype or anti-PD-L1/atezolizumab antibodies (100 μg/mouse) every 48 hours intraperitoneally from day 7 to day 19. Significant differences were determined by 2-way ANOVA with Dunnett's multiple comparison test. ***p<0.001

[4] = tested on: chemical carcinogen-induced skin cancer; conditions: 2% (w/v) PALA in 50% acetone/10% glycerol, topical, 4 weeks
Protocol: SKH1-Elite female mice were treated topically with DMBA for 2 weeks and then treated topically with TPA thrice a week for 8 weeks to induce skin cancer. Mice were then randomized into treatment groups and treated topically with vehicle (50% acetone/10% glycerol) or 2% (w/v) PALA for 4 weeks. A. Quantitation of mean change in tumor burden per mouse during the treatment period as a percentage of the tumor number on week 9. B. Weight change during the treatment period presented as percentage of baseline weight. C. Levels of the liver and systemic inflammation marker serum amyloid A (SAA) at endpoint. D. Measurements of colon length at endpoint as a gross measure of intestinal pathology. Means±SEM, n=8-9/group. Significance determined by 2-way ANOVA with Sidak's multiple comparisons test or unpaired […] t-test. All p values <0.05 are shown on the graphs.

[5] = tested on: normal human dermal fibroblasts; assay: PALA stimulation of normal human dermal fibroblasts (bactericidal activity against MRSA, antimicrobial peptides); type: cell-based; conditions: cells stimulated for 16 h with PALA
Protocol: (§1) A. Bactericidal activity of normal human dermal fibroblasts stimulated by PALA treatment. Cells stimulated for 16 h with the indicated concentration of PALA. Conditioned supernatants added to log phase cultures of methicillin-resistant Staphylococcus aureus (MRSA) for 2 h and viable bacterial determined by selective plating. Mean±SD graphed. B. PALA-stimulated production of antimicrobial peptides in normal human dermal fibroblasts. Cells were stimulated as in A. and supernatants assayed by ELISA for human β-defensin 2 (HBD2) and human β-defensin 3 (HBD3). Mean±SD graphed. C. […] Cell lysates from the cells shown in A. were assayed for their ability to catalyze the formation of carbamyl aspartate (CA) in vitro. Percent change in CA levels graphed; mean±SD. […] D. Average number of tumors per mouse at the end of the treatment period (mean±SEM graphed). D. Mice treated for 10 weeks with vehicle (Aquaphor), 1%, 2%, or 5% PALA in Aquaphor. E. Mice treated for 4 weeks with vehicle (AP0536/29/02), 2% (w/w) PALA (AP0536/29/02), or 4% (w/w) PALA (AP0536/29/02).

[6] = molecular target: T1, aspartate transcarbamylase (Homo sapiens, UniProt P27708); assay: Aspartate transcarbamylase activity in lysates of PALA-treated fibroblasts; type: cell-based; conditions: at doses that induce maximal immune stimulation, 16 h
T1 construct: endogenous in cells; host or cells: normal human dermal fibroblasts
Protocol: as §1

T1 sequence (P27708 2-2225 limits assumed): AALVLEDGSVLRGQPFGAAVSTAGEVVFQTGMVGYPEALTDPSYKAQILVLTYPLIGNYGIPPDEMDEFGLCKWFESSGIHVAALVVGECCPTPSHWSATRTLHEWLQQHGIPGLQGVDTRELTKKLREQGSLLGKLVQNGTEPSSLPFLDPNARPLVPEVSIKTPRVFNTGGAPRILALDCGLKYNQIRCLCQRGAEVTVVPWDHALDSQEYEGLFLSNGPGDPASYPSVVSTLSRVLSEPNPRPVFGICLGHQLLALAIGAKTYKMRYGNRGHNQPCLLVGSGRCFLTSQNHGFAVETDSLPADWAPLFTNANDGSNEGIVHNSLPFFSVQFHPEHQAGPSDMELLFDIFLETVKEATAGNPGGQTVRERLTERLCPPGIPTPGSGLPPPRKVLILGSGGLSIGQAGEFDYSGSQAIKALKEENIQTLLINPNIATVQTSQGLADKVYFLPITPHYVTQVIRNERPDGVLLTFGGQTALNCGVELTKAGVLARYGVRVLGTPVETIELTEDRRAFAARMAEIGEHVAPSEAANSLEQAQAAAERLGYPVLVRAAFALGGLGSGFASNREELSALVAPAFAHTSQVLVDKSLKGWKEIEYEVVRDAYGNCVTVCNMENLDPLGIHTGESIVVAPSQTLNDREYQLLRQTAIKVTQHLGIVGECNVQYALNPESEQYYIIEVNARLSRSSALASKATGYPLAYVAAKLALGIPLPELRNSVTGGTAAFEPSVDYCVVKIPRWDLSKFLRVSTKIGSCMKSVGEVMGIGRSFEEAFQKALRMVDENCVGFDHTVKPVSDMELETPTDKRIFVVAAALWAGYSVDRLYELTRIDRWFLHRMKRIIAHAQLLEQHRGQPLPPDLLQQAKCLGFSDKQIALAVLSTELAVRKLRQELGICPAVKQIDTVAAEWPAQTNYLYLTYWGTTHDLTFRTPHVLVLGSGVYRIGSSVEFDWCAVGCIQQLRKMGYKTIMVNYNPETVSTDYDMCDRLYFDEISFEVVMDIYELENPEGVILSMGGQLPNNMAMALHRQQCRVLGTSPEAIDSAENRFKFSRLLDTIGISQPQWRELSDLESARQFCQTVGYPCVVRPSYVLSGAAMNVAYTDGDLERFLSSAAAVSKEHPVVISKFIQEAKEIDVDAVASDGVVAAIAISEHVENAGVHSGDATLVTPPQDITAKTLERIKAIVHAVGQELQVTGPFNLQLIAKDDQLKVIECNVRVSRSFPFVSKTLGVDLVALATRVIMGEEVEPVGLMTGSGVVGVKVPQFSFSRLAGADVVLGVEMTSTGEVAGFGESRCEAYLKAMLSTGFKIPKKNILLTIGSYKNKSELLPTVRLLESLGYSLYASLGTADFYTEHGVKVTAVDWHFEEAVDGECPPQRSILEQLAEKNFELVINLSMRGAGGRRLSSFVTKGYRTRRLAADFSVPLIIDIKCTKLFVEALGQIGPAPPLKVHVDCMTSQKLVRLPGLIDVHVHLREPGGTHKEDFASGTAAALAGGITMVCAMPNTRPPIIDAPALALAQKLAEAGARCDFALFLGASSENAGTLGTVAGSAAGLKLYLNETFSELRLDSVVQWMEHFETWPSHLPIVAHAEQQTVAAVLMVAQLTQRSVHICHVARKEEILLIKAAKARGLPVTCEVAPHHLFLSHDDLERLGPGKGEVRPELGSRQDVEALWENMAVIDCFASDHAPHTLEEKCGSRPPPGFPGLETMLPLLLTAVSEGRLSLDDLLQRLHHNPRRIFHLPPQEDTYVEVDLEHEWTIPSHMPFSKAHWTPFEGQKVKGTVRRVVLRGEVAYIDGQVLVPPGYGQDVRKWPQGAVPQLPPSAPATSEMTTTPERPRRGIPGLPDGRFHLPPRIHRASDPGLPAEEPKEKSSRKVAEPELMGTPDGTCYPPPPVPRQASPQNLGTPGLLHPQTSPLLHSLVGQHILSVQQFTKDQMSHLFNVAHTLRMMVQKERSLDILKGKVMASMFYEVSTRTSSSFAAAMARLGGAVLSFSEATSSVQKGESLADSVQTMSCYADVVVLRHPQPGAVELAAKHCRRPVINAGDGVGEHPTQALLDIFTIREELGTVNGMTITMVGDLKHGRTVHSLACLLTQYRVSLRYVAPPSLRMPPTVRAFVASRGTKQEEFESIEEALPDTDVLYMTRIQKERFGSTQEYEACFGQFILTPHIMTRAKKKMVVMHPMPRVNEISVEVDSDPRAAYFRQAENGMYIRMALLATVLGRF
Chain of aspartate transcarbamylase (Escherichia coli, UniProt P0A786) (P0A786 2-311): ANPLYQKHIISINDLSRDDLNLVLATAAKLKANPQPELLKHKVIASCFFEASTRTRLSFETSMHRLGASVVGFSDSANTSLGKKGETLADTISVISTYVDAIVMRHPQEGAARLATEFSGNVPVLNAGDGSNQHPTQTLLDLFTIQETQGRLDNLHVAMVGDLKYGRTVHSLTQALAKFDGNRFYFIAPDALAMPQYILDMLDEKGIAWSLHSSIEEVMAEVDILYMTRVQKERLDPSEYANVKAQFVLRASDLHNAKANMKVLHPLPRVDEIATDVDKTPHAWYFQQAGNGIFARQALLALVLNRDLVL

For `O=C(O)CC(NC(=O)CP(=O)(O)O)C(=O)O` [PALA, N-phosphonacetyl-L-aspartate], the “tumor growth (tumor volume)” value [1] was “retarded”, the “CD8+ cytotoxic T cells in tumors” value (UVB-induced skin tumors; PALA compared to vehicle-treated controls) was “elevated numbers” and the “F4/80+ macrophages in tumors” value (UVB-induced skin tumors; PALA relative to vehicle-treated controls) was “increased numbers”. For the same compound, the “LL-37+ cells in tumor samples” value (UVB-induced skin tumors; PALA vs vehicle) was “significantly increased”, the “numbers of MPO+ cells (neutrophils) in tumors” value (UVB-induced skin tumors; PALA vs vehicle) was “the same” and the “overall number of CD3+ T cells within tumor tissue” value (UVB-induced skin tumors; PALA vs vehicle) was “the same”. The “total area of DefB14 staining within tumors” value (UVB-induced skin tumors; PALA vs vehicle) was “not different”, the “phospho-histone H3+ cells” value (UVB-induced skin tumors; excised tumors, 2% PALA, vehicle 3.1%, p=0.0067) was 4.9% and the “Ki67+ cells per tumor” value (UVB-induced skin tumors; excised tumors, 2% PALA, vehicle 10.4%, p=0.005) was 24.6%. The “cyclin D1+ cells per tumor” value (UVB-induced skin tumors; excised tumors, 2% PALA, vehicle 48.9%, p=0.0329) was 39.4%, the “cyclin B1+ or cyclin A2+ cell populations” value (UVB-induced skin tumors; excised tumors, PALA vs vehicle) was “No differences” and the “potency as inhibitor of aspartate transcarbamylase” value [2] was “nanomolar potency”. For the same compound, the “skin irritation or weight loss” value ([3]; 1, 2 or 5% (w/v) PALA in 50% acetone/10% glycerol, daily topical, 10 weeks) was “no apparent skin irritation or weight loss”, the “circulating levels of serum amyloid A (SAA) at endpoint” value ([3]; 1, 2 or 5% (w/v) PALA vs vehicle, daily topical, 10 weeks, trends of higher SAA at 1% and 5%) was “No significant differences” and the “gross colon pathology and colon lengths at harvest” value ([3]; 1, 2 or 5% (w/v) PALA, daily topical, 10 weeks) was “None of the mice had any apparent gross colon pathology or significant differences in colon lengths”. For the same compound, the “change in weight from the start of treatment” value ([3]; 2% (w/w) PALA (AP0536/29/02) vs 5% 5-FU and 5% IMQ, daily, 4 weeks) was “maintain weight is better than 5-FU or IMQ treated mice”, the “weight, SAA levels, gross intestinal pathology, LCN2 levels vs vehicle” value ([3]; 2% PALA, daily topical, 10 weeks) was “no significant differences” and the “fecal lipocalin-2 (LCN2) at endpoint” value ([3]; 5% PALA, daily topical, 10 weeks, vehicle 18.1±6.0, p=0.032) was 186.8±121.1. The “concentration up to which topical PALA is well tolerated” value ([3]; 10 weeks of daily treatment) was “up to 5 % (w/v)”, the “tumor growth (tumor volume)” value (B16 melanoma; 1% (w/w) PALA (AP0536/29/02), topical daily for 12 days from day 12 post-injection) was “retards tumor growth” and the “PD-L1 protein levels in tumor lysates” value (B16 melanoma; 2% (w/w) PALA (AP0536/29/02), topical daily for 5 days) was “reduces expression of the checkpoint inhibitor PD-L1”. The “response to anti-PD-L1 therapy” value (B16 melanoma; 2% (w/w) PALA daily for 5 days plus anti-PD-L1/atezolizumab 100 μg/mouse i.p. every 48 hours) was “sensitizes B16 melanoma to anti-PD-L1 therapy”, the “change in tumor burden” value [4] was “trends of efficacy in reducing tumor burden” and the “shape of dose-response curve (bactericidal activity, HBD2, HBD3)” value [5] was “U-shaped dose-response curve”. For the same compound, the “reduction of aspartate transcarbamylase enzyme activity (carbamyl aspartate formation)” value [6] was ~ 25%.
